From patent EP0629405A1, “Agent for inhibiting a decrease in bone mass in renal osteodystrophy” (KUREHA CHEMICAL INDUSTRY CO., LTD., priority 1993, dated 1994)
Where two headings read alike, the source gives them in different places.

Assays:
[1] = tested on: male SD rats with 7/8 of their kidney arteries ligated; test: renal osteodystrophy model: rats with 7/8 of kidney arteries ligated, oral administration for 4 months; femur mineral content by single photon absorptiometry and bone histology; type: in vivo; details: sham-operated control 0.284± 0.023, ligation-operated control 0.259± 0.017
Description: In view of these circumstances, the present inventors have made extensive investigations to develop novel rat models wherein renal insufficiency induces abnormal bone quality and low bone mass similar to clinical renal osteodystrophy. As a result, the present inventors have succeeded in obtaining an animal model with such diseases. Thus, after 7/8 of kidney arteries were ligated, animals endurable even for a long breeding term with a mild renal insufficiency were selected and carefully bred for 6 months to establish an animal model with renal osteodystrophy with accompanying abnormal bone quality and low bone mass.
After male SD rats with 7/8 of their kidney arteries ligated at 11 weeks old are bred for 8 weeks, 24R, 25-(OH)₂-D₃ and 24, 25-(OH)₂-D₃ (a racemate of 24R and 24S isomers) are administered orally to the rat for 4 months, respectively.
A solution of sesame oil (the Pharmacopoeia of Japan) containing 0.5 % ethanol is utilized as the solvent. The test is conducted by using 5 groups each of which consists of 6 to 10 rats as follows: • I. sham-operated control group (normal control group, solvent administration) n=8 • II. solvent administration control group n=6 • III. 24R, 25-(OH)₂-D₃ 0.1 µg/kg n=6 • IV. 24R, 25-(OH)₂-D₃ 5.0 µg/kg n=10 • V. 24, 25-(OH)₂-D₃ 5.0 µg/kg n=10
After administration, blood is anesthetically collected and applied to a biochemical serum analysis. After femur is resected, mineral content of femur is measured by means with equipment capable of measuring bone mass (single photon absorptiometry; SPA). Further, the bone tissue sample is stained by Villaneuva's bone staining after slicing, followed by observation under a microscope.

[2] = acute toxicity, oral administration in sesame oil, death rates for 2 weeks; details: mouse, in vivo, sesame oil containing 0.5 % ethanol, read-out: LD₅₀ (lethal dose, 50% mortality)
Procedure: The active compound of the present invention is tested for acute toxicity and the resultant data is shown as follows:
The active compound of the present invention, 24R, 25-(OH)₂-D₃ is admixed with a sesame oil (containing 0.5 % ethanol) and the mixture is orally administered to 4 groups of female and male ICR mice (each group has 5 mice) (body weight: male 29 to 33 g, female 22 to 29 g). Two weeks later, toxic symptom is observed.

Structure (SMILES)	bone mass (mineral content of femur, SPA) ([1]; 5.0 µg/kg orally for 4 months) [g/cm²]	bone mass (mineral content of femur, SPA) ([1]; 0.1 µg/kg orally for 4 months) [g/cm²]	LD50 at 336 h ([2]; female ICR mice) [mg/kg]	LD50 at 336 h ([2]; male ICR mice) [mg/kg]
C=C1CC[C@H](O)C/C1=C/C=C1\CCC[C@]2(C)[C@@H]([C@H](C)CCC(O)C(C)(C)O)CC[C@@H]12 (some centres unmarked) [24, 25-(OH)₂-D₃, 24, 25-dihydroxycholecalciferol]	0.282± 0.025			
C=C1CC[C@H](O)C/C1=C/C=C1\CCC[C@]2(C)[C@@H]([C@H](C)CC[C@@H](O)C(C)(C)O)CC[C@@H]12 [24R, 25-(OH)₂-D₃, 24R, 25-dihydroxycholecalciferol]	0.292 ± 0.019	0.291± 0.032	253	215
